From US20220305093A1, “NK-LYSIN PEPTIDE COMPOSITIONS AND METHODS FOR THEIR USE AS ANTIMICROBIAL/ANTIVIRAL AGENTS” (priority 2021, published 2022) come the findings set out here.

SMILES strings stand for the structures. Residues, ends and D or L forms follow the SMILES beside them.

One assay relates to Rotavirus (strain SA-11). Type of assay: cell-based. On the procedure:
Rotavirus (strain SA-11) was activated with 10 μg/mL trypsin before propagation on MA-104 cells derived from kidney cells of African […] monkey. MA-104 cells were cultivated in tissue culture flasks in the presence of less than 5% CO2 at 37° C. in Dulbecco's Minimal Essential Medium (DMEM) (Sigma-Aldrich) The DMEM included 1% antibiotic antimycotic solution and 10% heat inactivated fetal bovine serum (A5955, Sigma-Aldrich). Centrifugation of rotavirus was performed at 300×g for 5 mins in order to purify by removal of cell debris. The supernatant was utilized as a stock suspension of virus after filtration through 0.2 μm membrane. The stock virus contained 10^6-10^7 TCID50 per mL and was stored at −80° C. for future use.
In order to activate infectivity, rotavirus was placed in a solution of 10 μg/mL trypsin at 37° C. for 30 min. A 100 μl aliquot of the activated rotavirus sa-11 was mixed with and equal volume of 80 μg/ml NK-lysin peptides for a final rotavirus concentration of 1×10^6 TCID50/ml. The rotavirus and NK-lysin peptide mixture was first incubated for at 37° C. for 1 hour. Serial dilutions of rotavirus and rotavirus+peptide mixtures were prepared. Aliquots 100 μl of the 10-fold serial dilutions were then added to 96-well tissue culture plates comprising monolayers of MA-104 cells at a density of approximately 5.0×10^4 cells per well. Eight wells were used for each sample to make sure sufficient assay precision was achieved. The microplates were incubated for 5 days at 37° C. under 5% CO2 atmosphere. During the 5-day incubation, cells were monitored daily under a microscope to check for a cytopathic effect (CPE). A tissue culture infectious dose (TCID) was the infectious dose/mL of tissue culture equal to 50 percent of wells showing CPE at a specific dilution and was expressed as the TCID50 for that dilution. The highest dilutions in which 50% or higher wells were read as the TCID50.

The subject of assay [1] is Streptococcus mutans (isolate). The assay is described as follows: Growth kinetic activity at 2×MIC. The class given is cell-based. The following applies: time dependent, FIG. 3B. As to the method: (§1) The kinetic killing abilities of NK-lysin peptides were gauged in accordance with the Clinical Laboratory and Standard Institute (CLSI) broth micro-dilution technique presented by Wiegand and Hancock (2008). Mueller Hinton broth comprising 0.01% v/v acetic acid was prepared with 0.2% w/v bovine serum albumin, as above. […] The plate was then incubated at room temperature. […] A distinct triplicate was used to repeat the kinetic potential of NK-lysin peptides thrice.

Assay [2] deals with Salmonella typhimurium (ATCC 14028). Kind of assay: Growth kinetic activity at 2×MIC. Type of assay: cell-based. As to the method: as §1
Assay [3] deals with S. typhimurium (ATCC 14028). Kind of assay: Colony count assays. The following applies: 30 μg/ml. Type of assay: cell-based, Salmonella typhimurium. As to the method: Antimicrobial activity of NK-lysin peptides was assayed in cultures of S. typhimurium (ATCC 14028). The bacteria were maintained in tryptic soy broth at 3TC and were grown to the mid-logarithmic phase prior to testing. To determine the activity of NK-lysin peptides, colony count assays were carried out. Bacteria were pelleted and then re-suspended in a 10 mM sodium phosphate buffer pH 7.0 and then diluted to a density of (2×10^6 CFU ml^−1 in MHB. 50 μl of NK-lysin peptide were combined with an equal volume of bacterial culture and incubated at room temperature for 3 hours. A 1 μl sample of each culture was then diluted by 1000 (in 1 ml) and spread over MH agar plates. Colonies were counted after 24 hours at room temperature to determine the bacteria that survived.

Assay [4] relates to S. typhimurium (ATCC 14028). The class given is cell-based, Salmonella typhimurium. The following applies: ATCC 14028. On the procedure: Screening of NK-lysin peptides was carried out against gram-negative S. typhimurium (ATCC 14028) bacteria. Overnight cultivation of the bacteria was carried out at a temperature of 3TC. A bacterial suspension was created in 10 mM sodium phosphate buffer pH 7.0 having a density of (2×10^6 CFU ml^−1) and plated on Muller-Hinton (MH) agar plates to inoculate. After the plates were dry, antibiotics discs of various concentrations (0 to 150 μg/ml) of antibiotic or NK-lysin peptides were applied to the surface of the inoculated plates. The plates were cultured overnight at 3TC and observed for restriction of growth by determining the diameter of bacterial-free zones surrounding each disc. Ceftazidime antibiotic was employed as a positive control.

The test system of assay [5] is gram-positive and gram-negative bacteria. Kind of assay: organism not typed. The following applies: in vitro, some bacterial strains. An excerpt: The gram-positive bacterial strains utilized were Streptococcus pyogenes (ATCC 19615) and Streptococcus mutans (isolate obtained from a patient at King Abdul-Aziz hospital). The gram-negative bacterial strains used included Salmonella typhimurium (ATCC 14028), Escherichia coli (ATCC 11775), Pseudomonas aeruginosa (ATCC 9027), Klebsiella oxytoca (ATCC 49131), Shigella sonnei (ATCC 25931), and Klebsiella pneumoniae (patient isolate). Tryptic soy broth (TSB) was used to grow all bacterial strain overnight, after which the bacteria were washed using phosphate-buffered saline (PBS, NaCl 8 g/L, KCl 0.2 g/L, Na2HPO4 1.4 g/L, KH2PO4 0.24 g/L), and then diluted in the same buffer with 1/1000 TSB to an OD600 nm of 0.08-0.1 (1×10^8) colony-forming units (CFU)/ml, which was determined after performing retrospective plate counts on tryptic soy agar. Unless otherwise noted, the experiments in the following examples employed this inoculum preparation apart from when minimum inhibitory and bactericidal concentrations were determined, which employed cells in Muller Hinton broth. […]
Mueller Hinton broth (MHB) comprising 0.01% v/v acetic acid (Sigma Aldrich; St Louis, Mo.) and 0.2% w/v bovine serum albumin (Sigma Aldrich). […] The treated plates were incubated at […] and optical densities were determined for each well at 0 minutes, 1, 2 and 3 hours and after an overnight incubation. […]

Setting [6] is: 80 μg/ml peptide, Rotavirus (SA-11).

Take `CC[C@H](C)[C@H](NC(=O)[C@H](C)NC(=O)[C@H](CC(=O)O)NC(=O)[C@H](CCC(=O)O)NC(=O)[C@H](CC(=O)O)NC(=O)[C@@H]1CCCN1)C(=O)N[C@@H](CC(N)=O)C(=O)N[C@@H](CC(N)=O)C(=O)N[C@@H](C)C(=O)N[C@@H](CC(C)C)C(=O)N[C@@H](CC(N)=O)C(=O)N[C@@H](CCCCN)C(=O)N[C@H](C(=O)N[C@@H](CS)C(=O)N[C@@H](CO)C(=O)N[C@H](C(=O)NCC(=O)N[C@@H](CCCNC(=N)N)C(=O)N[C@@H](CCCNC(=N)N)C(=O)N[C@@H](CCC(N)=O)C(=O)N[C@@H](CCCNC(=N)N)C(=O)N[C@@H](CO)C(=O)N[C@H](C(=O)N[C@@H](CS)C(=O)N[C@@H](CCCCN)C(=O)N[C@@H](CCC(N)=O)C(=O)N[C@@H](CC(C)C)C(=O)N[C@@H](CC(C)C)C(=O)N[C@@H](CCCCN)C(=O)N[C@@H](CCCCN)C(=O)O)[C@@H](C)CC)[C@@H](C)O)C(C)C` [Chicken NK-lysin] (H-PDEDAINNALNKVCSTGRRQRSICKQLLKK-OH; N-terminus and C-terminus assumed): in the assay with Rotavirus (strain SA-11) (setting [6]), the Log10TCID50/ml is given as 5.61 and the TCID50/ml is 4.11 × 10^5 TCID50/ml. Also, in the assay on Rotavirus (strain SA-11) (80 μg/ml peptide, versus initial titre), the “% reduction” value came out at 79%. The “inhibition of infection / infectivity” value with Rotavirus (strain SA-11) (Rotavirus (strain SA-11)) came out at 80%. Besides, the “kinetic activity compared between peptides” value in assay [1] is recorded as “more potent activity than bovine or human NK-lysin peptides”. The “growth inhibition” value in assay [2] (2×MIC, after 4 hr of incubation) is “Complete inhibition”. Also, the “lethality” value in assay [2] (1 hr after treatment) was “high lethality”. Also, the “decrease of colony number” value in assay [3] is given as “approximately 10 fold”. The molecule also showed a clear zone diameter in assay [4] of 23 mm. In assay [5], the “time to nearly complete killing” value is not above 3 h.
